{
  "source": "patent US8420696B2",
  "about": "“Use of low-dose ladostigil for neuroprotection” (priority 2005, dated 2013)",
  "key": {"MAO-A": {"tested_on": "MAO-A", "test": "In vivo MAO inhibition assay (MAO-A)", "design": "species or system Rats and mice", "method": "(§1) The level of MAO (MAO-A and MAO-B) inhibition can be determined by routine methods, including those detailed below.\n(§2) Rats and mice are treated by subcutaneous (s.c.) or intraperitoneal (i.p.) injection or oral (p.o.) administration of the compound to be tested. Animals are decapitated approximately 2 hours after drug treatment and MAO activity is determined in the brain, intestine, and/or liver. MAO activity is expressed as percentage of enzyme activity relative to a control group administered with vehicle only. Effective doses producing 50% MAO inhibition (ED50 values) are calculated from inhibition curves.\n(§3) Repeated treatment by ladostigil (e.g. daily doses for 7 days) can be used to calculate inhibition achieved through chronic administration."}, "ChE": {"tested_on": "ChE", "test": "In vivo ChE inhibition assay", "design": "species or system cynomolgus monkeys", "details": "acute or chronic administration, amounts up to 7.0 mg/kg ladostigil base", "method": "The level of ChE inhibition can be determined by routine methods, including those detailed below.\nIn vivo measurement of ChE inhibition is similar to that of in vivo measurement of MAO inhibition, except that cynomolgus monkeys are treated, and tissues are examined for brain, plasma and erythrocytes ChE inhibition."}, "MAO-B": {"tested_on": "MAO-B", "test": "In vivo MAO inhibition assay (MAO-B)", "design": "species or system Rats and mice", "method": "as §1, §2, §3"}, "[1]": {"tested_on": "memory deficits after icv injections of STZ", "details": "chronic treatment; cited from earlier work"}, "[2]": {"tested_on": "rats injected icv with Aβ(1-40)", "details": "cited from earlier work"}, "[3]": {"details": "acute administration, amounts up to 20.4 mg/kg of ladostigil base"}, "[4]": {"details": "chronic administration, amounts up to 4.5 mg/kg of ladostigil base"}},
  "data": [
    {"compound": "R(+)-6-(N-methyl,N-ethyl-carbamoyloxy)-N′-propargyl-1-aminoindan [ladostigil tartrate]", "values": [
      {"measurement": "MAO inhibition (MAO-A)", "setting": "MAO-A; [3]", "value": "no more than 25%"},
      {"measurement": "MAO inhibition (MAO-A)", "setting": "MAO-A; [4]", "value": "no more than 25%"},
      {"measurement": "ChE inhibition", "setting": "ChE", "value": "no more than 30%"},
      {"measurement": "MAO inhibition (MAO-B)", "setting": "MAO-B; [3]", "value": "no more than 25%"},
      {"measurement": "MAO inhibition (MAO-B)", "setting": "MAO-B; [4]", "value": "no more than 25%"}
    ]},
    {"compound": "Oc1ccc(C=Cc2cc(O)cc(O)c2)cc1", "note": "[resveratrol]", "values": [
      {"measurement": "Memory deficits 3-8 weeks after icv STZ", "setting": "[1]", "value": "can be reduced"}
    ]},
    {"compound": "CC12CC3CC(C)(C1)CC(N)(C3)C2", "note": "[memantine]", "values": [
      {"measurement": "Activation of microglia and astrocytes and memory deficits after icv Aβ(1-40)", "setting": "[2]", "value": "reduced the activation of microglia and astrocytes and the memory deficits"}
    ]},
    {"compound": "COc1ccc2[nH]cc(CCNC(C)=O)c2c1", "note": "[melatonin]", "values": [
      {"measurement": "Memory deficits 3-8 weeks after icv STZ", "setting": "[1]", "value": "can be reduced"}
    ]}
  ]
}
